{"source": "patent US6376543B1", "about": "“Secondary cataract inhibitor” (Kissei Pharmaceuticals Co., Ltd., priority 1996, dated 2002)", "tested_on": "rat lens epithelial cells", "experiment": "Inhibitory activity on lens epithelial cell proliferation", "assay_type": "cell-based", "conditions": "rat lens epithelial cells cultured 4 days in DMEM with 10% FBS and various concentrations of Tranilast; viable cells counted by hemocytometer; FIG. 1", "experimental": "Inhibitory Activity on Lens Epithelial Cell Proliferation\n(1) Culture of Rat Lens Epithelial Cells\nRat crystalline lens was harvested and cut into narrow strips. The strips were adhered to a culture plate and subcultured in Dulbecco's modified Eagle's Medium (DMEM) containing 10% fetal calf serum (FBS) at 37° C. in an atmosphere of 5% CO2 in air for 4 days. On day 4 (at the point that lens epithelial cells had migrated and profilated from crystalline lens tissues), the medium was aspirated and cells were gently washed with phosphate-buffered saline (PBS(−)). Then, the PBS(−) was aspirated, an aliquot of 0.25% trypsin solution containing 0.02% EDTA was added to the culture plate, and the morphology of the cells was observed under phase-contrast microscopy. When cells were going to be round, an equal value of DMEM containing 10% FBS was added to the trypsin solution to stop the action of trypsin. […]\nCell suspension (2×10^4 cells/0.1 ml) and DMEM medium (1.9 ml) containing various concentration of Tranilast and 10% FBS were added to a culture plate (60 mm), and cultured at 37° C. in an atmosphere of 5% CO2 in air. […] After harvesting cells from the plate by pipetting using a pasture pipette, the number of viable cells was counted using a hemocytometer. […]\nMean and standard variation values of each group were calculated. […]"}
{"smiles": "COc1ccc(C=CC(=O)Nc2ccccc2C(=O)O)cc1OC", "note": "[Tranilast, N-(3,4-dimethoxycinnamoyl)anthranilic acid]", "values": [{"measurement": "proliferation of lens epithelial cells (number of viable cells)", "result": "significantly suppressed the proliferation of lens epithelial cells in a concentration-dependent manner"}]}
